Measured values taken from ChEMBL document CHEMBL1150455, “Preparation and in vitro activities of naphthyl and indolyl ether derivatives of the FK-506 related immunosuppressive macrolide ascomycin” (Bioorg Med Chem Lett, 1996).

Legend:
[1] = target: Peptidyl-prolyl cis-trans isomerase FKBP1A (Homo sapiens, UniProt P62942); assay: In vitro competitive binding to FK506 binding protein 12 versus tritiated FK-506.
T-cell [2] = assay: In vitro inhibition of proliferation of PMA and ionomycin stimulated murine T cells.; format: functional, cell-based; details: Mus musculus
T-cell [3] = assay: In vitro inhibition of proliferation of PMA and ionomycin stimulated murine T cells; Antagonist; format: functional, cell-based, Mus musculus

Sequence of Peptidyl-prolyl cis-trans isomerase FKBP1A (P62942 whole entry): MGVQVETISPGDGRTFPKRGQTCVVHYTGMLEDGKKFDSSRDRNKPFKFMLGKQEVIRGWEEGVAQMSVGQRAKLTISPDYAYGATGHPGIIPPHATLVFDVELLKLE

CC[C@@H]1/C=C(\C)C[C@H](C)[C@H](OC)[C@H]2O[C@@](O)(C(=O)C(=O)N3CCCC[C@H]3C(=O)O[C@H](/C(C)=C/[C@@H]3CC[C@@H](Oc4ccc5ccccc5c4)[C@H](OC)C3)[C@H](C)[C@@H](O)CC1=O)[C@H](C)C[C@@H]2OC
IC50 [1]: 74.8 nM | IC50 (T-cell [2]): 1.8 nM

CC[C@@H]1/C=C(\C)[C@@H](O)[C@H](C)[C@H](OC)[C@H]2O[C@@](O)(C(=O)C(=O)N3CCCC[C@H]3C(=O)O[C@H](/C(C)=C/[C@@H]3CC[C@@H](Oc4ccc5c(ccn5C)c4)[C@H](OC)C3)[C@H](C)[C@@H](O)CC1=O)[C@H](C)C[C@@H]2OC
IC50 [1]: 2.8 nM | IC50 (T-cell [2]): 5.5 nM

CC[C@@H]1/C=C(\C)[C@@H](O)[C@H](C)[C@H](OC)[C@H]2O[C@@](O)(C(=O)C(=O)N3CCCC[C@H]3C(=O)O[C@H](/C(C)=C/[C@@H]3CC[C@@H](O)[C@H](OC)C3)[C@H](C)[C@@H](O)CC1=O)[C@H](C)C[C@@H]2OC
IC50 [1]: 0.7 nM | IC50 (T-cell [3]): Antagonist

CC[C@@H]1/C=C(\C)C[C@H](C)[C@H](OC)[C@H]2O[C@@](O)(C(=O)C(=O)N3CCCC[C@H]3C(=O)O[C@H](/C(C)=C/[C@@H]3CC[C@@H](Oc4ccc5c(ccn5C)c4)[C@H](OC)C3)[C@H](C)[C@@H](O)CC1=O)[C@H](C)C[C@@H]2OC
IC50 [1]: 3.6 nM | IC50 (T-cell [2]): 0.2 nM

CC[C@@H]1/C=C(\C)[C@@H](O)[C@H](C)[C@H](OC)[C@H]2O[C@@](O)(C(=O)C(=O)N3CCCC[C@H]3C(=O)O[C@H](/C(C)=C/[C@@H]3CC[C@@H](Oc4ccc5ccccc5c4)[C@H](OC)C3)[C@H](C)[C@@H](O)CC1=O)[C@H](C)C[C@@H]2OC
IC50 (T-cell [2]): 10.2 nM

CC[C@@H]1/C=C(\C)C[C@H](C)[C@H](OC)[C@H]2O[C@@](O)(C(=O)C(=O)N3CCCC[C@H]3C(=O)O[C@H](/C(C)=C/[C@@H]3CC[C@@H](Oc4ccc5[nH]ccc5c4)[C@H](OC)C3)[C@H](C)[C@@H](O)CC1=O)[C@H](C)C[C@@H]2OC
IC50 [1]: 5.1 nM | IC50 (T-cell [2]): 0.2 nM

C=CC[C@@H]1/C=C(\C)C[C@H](C)[C@H](OC)[C@H]2O[C@@](O)(C(=O)C(=O)N3CCCC[C@H]3C(=O)O[C@H](/C(C)=C/[C@@H]3CC[C@@H](O)[C@H](OC)C3)[C@H](C)[C@@H](O)CC1=O)[C@H](C)C[C@@H]2OC
IC50 [1]: 0.8 nM | IC50 (T-cell [2]): 0.2 nM

CC[C@@H]1/C=C(\C)C[C@H](C)[C@H](OC)[C@H]2O[C@@](O)(C(=O)C(=O)N3CCCC[C@H]3C(=O)O[C@H](/C(C)=C/[C@@H]3CC[C@@H](O)[C@H](OC)C3)[C@H](C)[C@@H](O)CC1=O)[C@H](C)C[C@@H]2OC
IC50 [1]: 1.6 nM | IC50 (T-cell [2]): 0.7 nM

CC[C@@H]1/C=C(\C)C[C@H](C)[C@H](OC)[C@H]2O[C@@](O)(C(=O)C(=O)N3CCCC[C@H]3C(=O)O[C@H](/C(C)=C/[C@@H]3CC[C@@H](Oc4ccccc4)[C@H](OC)C3)[C@H](C)[C@@H](O)CC1=O)[C@H](C)C[C@@H]2OC
IC50 [1]: 10 nM | IC50 (T-cell [2]): 5.4 nM
